Values quoted from earlier work in patent US5711967A (Spirig AG, Pharmazeutische Praeparate, priority 1991, dated 1998).

Experiments:
[1] = above pKa value of approx. 4-5
mucosa = conditions: release in the stomach

SMILES: O=C(O)Cc1ccccc1Nc1c(Cl)cccc1Cl [diclofenac]
- solubility in aqueous media [1]: increases considerably above this value
- distribution into the synovial fluid (from the blood plasma): concentrate in the synovial fluid, with a delay
- elimination half-life (non-delayed-action diclofenac): 1 to 2 h
- blood concentration half-life (oral diclofenac preparations): one to two
- action on mucosa (mucosa): mucosa-irritating and/or mucosa-damaging
